Laboratory results published in the supplement of paper PMC10307832.

Key:
Test in all cases: relative viability (nuclei count vs DMSO), 5 days (fraction); higher = more cells survive
[1] = compound: CC(C)N(CCCNC(=O)Nc1ccc(C(C)(C)C)cc1)C[C@H]1O[C@@H](n2ccc3c(N)ncnc32)[C@H](O)[C@@H]1O + Nc1nc2[nH]cc(CCc3ccc(C(=O)N[C@@H](CCC(=O)O)C(=O)O)cc3)c2c(=O)[nH]1 [Pemetrexed] (partner 0.2 µM)
Procedure, shortened: (§1)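 Lung cancer cell lines were seeded in 1536-well plates and dosed by pin tool the next day, with either a single drug or a fixed anchor-drug dose combined with five library-drug doses (not always all listed) spaced in √10 steps. Five days later, one step fixed the cells and stained their nuclei (final 0.05% Triton X-100, 1% formaldehyde, 1 ug/ml Hoechst), and nuclei were counted on 4× images. Relative viability is the nuclei count in treated wells divided by the count in vehicle wells, and each value is the median of duplicate plates.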

[2] = compound: CC(C)=CC[C@@H](O)C1=CC(=O)c2c(O)ccc(O)c2C1=O [Shikonin] + COc1cccc2cc(-c3nc([C@H]4CC[C@H](C(=O)O)CC4)n4ncnc(N)c34)[nH]c12 [OSI-027] (partner 0.5 µM)
Procedure, shortened: as §1

[3] = compound: CC(C)N(CCCNC(=O)Nc1ccc(C(C)(C)C)cc1)C[C@H]1O[C@@H](n2ccc3c(N)ncnc32)[C@H](O)[C@@H]1O
Procedure, shortened: (§2)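 On vehicle-anchored 1536-well plates, lung cancer cell lines held overnight at 37 °C were pinned with five library-drug doses (not always all listed) spaced by √10. With no medium change over 5 days, they were then fixed, permeabilised and Hoechst-stained in one step and imaged at 4×. MetaXpress counted nuclei, and viability is the median across plates of treated-well over vehicle-well nuclei. Acceptance needed control CV below 25% and at least one doubling.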

[4] = compound: CC(C)=CC[C@@H](O)C1=CC(=O)c2c(O)ccc(O)c2C1=O [Shikonin]
Procedure, shortened: as §2

PC-14
relative viability ([1]; first compound 0.08 µM): 0.149
relative viability ([1]; first compound 0.253 µM): 0.171
relative viability ([1]; first compound 0.8 µM): 0.138
relative viability ([1]; first compound 2.53 µM): 0.141
relative viability ([1]; first compound 8 µM): 0.163
relative viability ([2]; first compound 0.01 µM): 0.921
relative viability ([2]; first compound 0.1 µM): 0.556
relative viability ([2]; first compound 0.3162 µM): 1.06
relative viability ([2]; first compound 1 µM): 0.9
relative viability ([3]; 0.08 µM): 0.975
relative viability ([3]; 0.253 µM): 0.981
relative viability ([3]; 0.8 µM): 0.951
relative viability ([3]; 2.53 µM): 0.967
relative viability ([3]; 8 µM): 0.904
relative viability ([4]; 0.01 µM): 1.08
relative viability ([4]; 0.1 µM): 1
relative viability ([4]; 0.3162 µM): 1.12
relative viability ([4]; 1 µM): 1.11

RERF-LC-KJ
relative viability ([1]; first compound 0.08 µM): 0.502
relative viability ([1]; first compound 0.253 µM): 0.478
relative viability ([1]; first compound 0.8 µM): 0.517
relative viability ([1]; first compound 2.53 µM): 0.48
relative viability ([1]; first compound 8 µM): 0.466
relative viability ([2]; first compound 0.01 µM): 0.513
relative viability ([2]; first compound 0.1 µM): 0.534
relative viability ([2]; first compound 0.3162 µM): 0.632
relative viability ([2]; first compound 1 µM): 0.644
relative viability ([3]; 0.08 µM): 0.951
relative viability ([3]; 0.253 µM): 1.05
relative viability ([3]; 0.8 µM): 0.966
relative viability ([3]; 2.53 µM): 0.968
relative viability ([3]; 8 µM): 0.912
relative viability ([4]; 0.01 µM): 1.09
relative viability ([4]; 0.1 µM): 0.986
relative viability ([4]; 0.3162 µM): 1.02
relative viability ([4]; 1 µM): 1.03

SK-LU-1
relative viability ([1]; first compound 0.08 µM): 1
relative viability ([1]; first compound 0.253 µM): 1.01
relative viability ([1]; first compound 0.8 µM): 1.04
relative viability ([1]; first compound 2.53 µM): 0.983
relative viability ([1]; first compound 8 µM): 0.915
relative viability ([2]; first compound 0.01 µM): 0.341
relative viability ([2]; first compound 0.1 µM): 0.371
relative viability ([2]; first compound 0.3162 µM): 0.343
relative viability ([2]; first compound 1 µM): 0.352
relative viability ([3]; 0.08 µM): 1.01
relative viability ([3]; 0.253 µM): 1.06
relative viability ([3]; 0.8 µM): 0.989
relative viability ([3]; 2.53 µM): 1.1
relative viability ([3]; 8 µM): 0.941
relative viability ([4]; 0.01 µM): 1.05
relative viability ([4]; 0.1 µM): 1.05
relative viability ([4]; 0.3162 µM): 1.21
relative viability ([4]; 1 µM): 1.03
